Source: the NIST ThermoML archive (doi:10.1016/j.jct.2005.03.019)
± gives the expanded uncertainty stated by the source.

Assay: xn = mol fraction of the nth substance listed
Conditions: 101 kPa, Liquid, Vibrating tube method

CC1COC(=O)O1 (configuration not stated) [4-methyl-1,3-dioxolan-2-one] + Cc1ccccc1
Conditions | mass density [kg/m3]
293.15 K, x2 = 0 | 1200.3 ± 0.1
293.15 K, x2 = 0.0578 | 1177.7 ± 0.1
293.15 K, x2 = 0.1279 | 1151 ± 0.1
293.15 K, x2 = 0.1735 | 1133.9 ± 0.1
293.15 K, x2 = 0.2387 | 1110 ± 0.1
293.15 K, x2 = 0.3248 | 1079.4 ± 0.2
293.15 K, x2 = 0.3891 | 1057.1 ± 0.2
293.15 K, x2 = 0.4398 | 1039.9 ± 0.2
293.15 K, x2 = 0.5179 | 1014 ± 0.2
293.15 K, x2 = 0.5621 | 999.7 ± 0.2
293.15 K, x2 = 0.6381 | 975.4 ± 0.1
293.15 K, x2 = 0.7139 | 951.8 ± 0.1
293.15 K, x2 = 0.7639 | 936.5 ± 0.1
293.15 K, x2 = 0.8247 | 918.2 ± 0.1
293.15 K, x2 = 0.8739 | 903.6 ± 0.1
293.15 K, x2 = 0.9376 | 884.9 ± 0.1
303.15 K, x2 = 0 | 1180.6 ± 0.1
303.15 K, x2 = 0.0516 | 1161 ± 0.1
303.15 K, x2 = 0.1211 | 1135.3 ± 0.1
303.15 K, x2 = 0.1782 | 1114.7 ± 0.1
303.15 K, x2 = 0.2298 | 1096.4 ± 0.1
303.15 K, x2 = 0.2971 | 1073 ± 0.1
303.15 K, x2 = 0.3565 | 1052.9 ± 0.1
303.15 K, x2 = 0.4134 | 1034 ± 0.2
303.15 K, x2 = 0.4681 | 1016.2 ± 0.2
303.15 K, x2 = 0.5371 | 994.2 ± 0.2
303.15 K, x2 = 0.6021 | 973.9 ± 0.1
303.15 K, x2 = 0.6629 | 955.4 ± 0.1
303.15 K, x2 = 0.7232 | 937.2 ± 0.1
303.15 K, x2 = 0.7832 | 919.5 ± 0.1
303.15 K, x2 = 0.8537 | 899.1 ± 0.1
303.15 K, x2 = 0.9245 | 878.8 ± 0.1
313.15 K, x2 = 0 | 1161.3 ± 0.1
313.15 K, x2 = 0.0467 | 1144.2 ± 0.1
313.15 K, x2 = 0.1274 | 1115.2 ± 0.1
313.15 K, x2 = 0.1832 | 1095.7 ± 0.1
313.15 K, x2 = 0.2572 | 1070.4 ± 0.1
313.15 K, x2 = 0.3291 | 1046.5 ± 0.1
313.15 K, x2 = 0.3938 | 1025.5 ± 0.2
313.15 K, x2 = 0.4531 | 1006.7 ± 0.2
313.15 K, x2 = 0.5291 | 983.2 ± 0.2
313.15 K, x2 = 0.5919 | 964.2 ± 0.1
313.15 K, x2 = 0.6472 | 947.7 ± 0.1
313.15 K, x2 = 0.6938 | 934.1 ± 0.1
313.15 K, x2 = 0.7524 | 917.2 ± 0.1
313.15 K, x2 = 0.8138 | 899.7 ± 0.1
313.15 K, x2 = 0.8623 | 886.1 ± 0.1
313.15 K, x2 = 0.9427 | 863.9 ± 0.1
323.15 K, x2 = 0 | 1142.4 ± 0.1
323.15 K, x2 = 0.0592 | 1121.4 ± 0.1
323.15 K, x2 = 0.114 | 1102.4 ± 0.1
323.15 K, x2 = 0.1734 | 1082.1 ± 0.1
323.15 K, x2 = 0.2378 | 1060.7 ± 0.1
323.15 K, x2 = 0.3139 | 1036 ± 0.1
323.15 K, x2 = 0.3681 | 1018.8 ± 0.1
323.15 K, x2 = 0.4244 | 1001.4 ± 0.2
323.15 K, x2 = 0.4711 | 987.1 ± 0.2
323.15 K, x2 = 0.5137 | 974.3 ± 0.2
323.15 K, x2 = 0.5828 | 954 ± 0.1
323.15 K, x2 = 0.6528 | 933.8 ± 0.1
323.15 K, x2 = 0.725 | 913.4 ± 0.1
323.15 K, x2 = 0.7941 | 894.2 ± 0.1
323.15 K, x2 = 0.8529 | 878.2 ± 0.1
323.15 K, x2 = 0.9172 | 860.9 ± 0.1
333.15 K, x2 = 0 | 1124 ± 0.1
333.15 K, x2 = 0.0545 | 1105.2 ± 0.1
333.15 K, x2 = 0.1287 | 1080.2 ± 0.1
333.15 K, x2 = 0.1831 | 1062.3 ± 0.1
333.15 K, x2 = 0.2417 | 1043.4 ± 0.1
333.15 K, x2 = 0.3274 | 1016.5 ± 0.1
333.15 K, x2 = 0.3818 | 999.9 ± 0.1
333.15 K, x2 = 0.4383 | 983 ± 0.2
333.15 K, x2 = 0.4819 | 970.1 ± 0.2
333.15 K, x2 = 0.5381 | 953.9 ± 0.2
333.15 K, x2 = 0.5821 | 941.3 ± 0.1
333.15 K, x2 = 0.6421 | 924.5 ± 0.1
333.15 K, x2 = 0.7138 | 904.8 ± 0.1
333.15 K, x2 = 0.7832 | 886.1 ± 0.1
333.15 K, x2 = 0.8527 | 867.7 ± 0.1
333.15 K, x2 = 0.9323 | 846.9 ± 0.1
343.15 K, x2 = 0 | 1106 ± 0.1
343.15 K, x2 = 0.0613 | 1085.5 ± 0.1
343.15 K, x2 = 0.1248 | 1064.7 ± 0.1
343.15 K, x2 = 0.1822 | 1046.3 ± 0.1
343.15 K, x2 = 0.2489 | 1025.5 ± 0.1
343.15 K, x2 = 0.3011 | 1009.5 ± 0.1
343.15 K, x2 = 0.3719 | 988.4 ± 0.1
343.15 K, x2 = 0.458 | 963.3 ± 0.2
343.15 K, x2 = 0.5043 | 950.2 ± 0.2
343.15 K, x2 = 0.5729 | 931.1 ± 0.1
343.15 K, x2 = 0.6429 | 912 ± 0.1
343.15 K, x2 = 0.7041 | 895.7 ± 0.1
343.15 K, x2 = 0.7634 | 880.1 ± 0.1
343.15 K, x2 = 0.8241 | 864.4 ± 0.1
343.15 K, x2 = 0.8721 | 852.2 ± 0.1
343.15 K, x2 = 0.9347 | 836.3 ± 0.1
353.15 K, x2 = 0 | 1088.4 ± 0.1
353.15 K, x2 = 0.0524 | 1071.3 ± 0.1
353.15 K, x2 = 0.1139 | 1051.6 ± 0.1
353.15 K, x2 = 0.1942 | 1026.6 ± 0.1
353.15 K, x2 = 0.2589 | 1007 ± 0.1
353.15 K, x2 = 0.3238 | 987.8 ± 0.1
353.15 K, x2 = 0.4035 | 964.9 ± 0.1
353.15 K, x2 = 0.4598 | 949.1 ± 0.2
353.15 K, x2 = 0.5243 | 931.4 ± 0.2
353.15 K, x2 = 0.5825 | 915.7 ± 0.1
353.15 K, x2 = 0.6359 | 901.6 ± 0.1
353.15 K, x2 = 0.693 | 886.8 ± 0.1
353.15 K, x2 = 0.7749 | 865.9 ± 0.1
353.15 K, x2 = 0.8371 | 850.3 ± 0.1
353.15 K, x2 = 0.8689 | 842.4 ± 0.1
353.15 K, x2 = 0.9432 | 824.2 ± 0.1
